compound: C1CSC2=C(C(=O)N1)SC3=C2C=C(C=C3)O [kb NB 142-70] + Cc1cc(Nc2cc(N3CCN(C)CC3)nc(Sc3ccc(NC(=O)C4CC4)cc3)n2)n[nH]1 [Tozasertib] (partner 0.1 µM); test: relative viability (nuclei count vs DMSO), 5 days (fraction); higher = more cells survive; settings: first compound 0.1 µM
In short: (§1)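 Dosing by pin tool came one day after lung cancer cell lines were seeded in 1536-well plates, using either one drug or a fixed anchor-drug dose plus five library-drug doses (not always all listed) in √10 steps. After 5 days, nuclei were counted on 4× images. Relative viability is treated-well nuclei count divided by vehicle-well nuclei count, and values are medians of duplicate plates.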

Cell Line | relative viability
ChaGo-K-1 | 0.244
NCI-H2170 | 0.688
NCI-H2405 | 0.785
HOP-62 | 0.314
LU99A | 0.285
BEN | 0.459
HARA | 0.0886
SW 900 | 0.608
NCI-H322M | 0.464
LCLC-97TM1 | 0.197
A-427 | 0.252
NCI-H441 | 0.663
NCI-H1734 | 0.271
NCI-H460 | 0.541
NCI-H2347 | 0.69
NCI-H1395 | 0.724
201T | 0.875
NCI-H1915 | 0.445
HCC-827 | 0.418
LXF-289 | 0.173
NCI-H23 | 0.381
NCI-H647 | 0.274
CAL-12T | 0.36
NCI-H1651 | 0.678
EPLC-272H | 0.353
NCI-H1355 | 0.577
NCI-H3122 | 0.366
NCI-H1437 | 0.407
NCI-H1755 | 0.627
HCC-15 | 0.427

same assay, conditions: first compound 1 µM

Cell Line | relative viability
ChaGo-K-1 | 0.246
NCI-H2170 | 0.735
NCI-H2405 | 0.695
HOP-62 | 0.315
LU99A | 0.237
BEN | 0.455
HARA | 0.112
SW 900 | 0.472
NCI-H322M | 0.519
LCLC-97TM1 | 0.207
A-427 | 0.221
NCI-H441 | 0.581
NCI-H1734 | 0.263
NCI-H460 | 0.397
NCI-H2347 | 0.589
NCI-H1395 | 0.784
201T | 0.974
NCI-H1915 | 0.397
HCC-827 | 0.429
LXF-289 | 0.192
NCI-H23 | 0.37
NCI-H647 | 0.332
CAL-12T | 0.395
NCI-H1651 | 0.748
EPLC-272H | 0.217
NCI-H1355 | 0.542
NCI-H3122 | 0.459
NCI-H1437 | 0.421
NCI-H1755 | 0.492
HCC-15 | 0.471

same assay, conditions: first compound 3.162 µM

Cell Line | relative viability
ChaGo-K-1 | 0.219
NCI-H2170 | 0.481
NCI-H2405 | 0.652
HOP-62 | 0.245
LU99A | 0.195
BEN | 0.437
HARA | 0.0824
SW 900 | 0.407
NCI-H322M | 0.45
LCLC-97TM1 | 0.149
A-427 | 0.195
NCI-H441 | 0.302
NCI-H1734 | 0.234
NCI-H460 | 0.254
NCI-H2347 | 0.506
NCI-H1395 | 0.729
201T | 1.03
NCI-H1915 | 0.276
HCC-827 | 0.367
LXF-289 | 0.181
NCI-H23 | 0.241
NCI-H647 | 0.426
CAL-12T | 0.267
NCI-H1651 | 0.311
EPLC-272H | 0.143
NCI-H1355 | 0.428
NCI-H3122 | 0.165
NCI-H1437 | 0.446
NCI-H1755 | 0.63
HCC-15 | 0.227

compound: C1CSC2=C(C(=O)N1)SC3=C2C=C(C=C3)O [kb NB 142-70] + NC(=O)Nc1cc(-c2cccc(F)c2)sc1C(=O)N[C@H]1CCCNC1 [AZD7762] (partner 0.2 µM); test: as above; settings: first compound 0.1 µM
In short: as §1

Cell Line | relative viability
ChaGo-K-1 | 0.896
NCI-H2170 | 0.899
NCI-H2405 | 0.792
HOP-62 | 0.691
LU99A | 0.386
BEN | 0.727
HARA | 0.292
SW 900 | 0.663
NCI-H322M | 0.634
LCLC-97TM1 | 0.346
A-427 | 0.783
NCI-H441 | 1.06
NCI-H1734 | 0.585
NCI-H460 | 0.618
NCI-H2347 | 0.873
NCI-H1395 | 0.4
201T | 0.603
NCI-H1915 | 0.679
HCC-827 | 0.233
LXF-289 | 1.11
NCI-H23 | 0.376
NCI-H647 | 0.412
CAL-12T | 0.548
NCI-H1651 | 0.488
EPLC-272H | 0.265
NCI-H1355 | 0.776
NCI-H3122 | 1
NCI-H1437 | 1.14
NCI-H1755 | 0.436
HCC-15 | 1.2

same assay, conditions: first compound 1 µM

Cell Line | relative viability
ChaGo-K-1 | 0.873
NCI-H2170 | 1.04
NCI-H2405 | 0.769
HOP-62 | 1.1
LU99A | 0.493
BEN | 0.623
HARA | 0.393
SW 900 | 0.758
NCI-H322M | 0.707
LCLC-97TM1 | 0.231
A-427 | 0.93
NCI-H441 | 1.23
NCI-H1734 | 0.589
NCI-H460 | 0.904
NCI-H2347 | 0.924
NCI-H1395 | 0.428
201T | 0.723
NCI-H1915 | 0.821
HCC-827 | 0.195
LXF-289 | 1.1
NCI-H23 | 0.291
NCI-H647 | 0.516
CAL-12T | 0.718
NCI-H1651 | 0.448
EPLC-272H | 0.34
NCI-H1355 | 0.81
NCI-H3122 | 1.03
NCI-H1437 | 1.12
NCI-H1755 | 0.447
HCC-15 | 1.29

same assay, conditions: first compound 3.162 µM

Cell Line | relative viability
ChaGo-K-1 | 0.888
NCI-H2170 | 0.724
NCI-H2405 | 0.609
HOP-62 | 0.764
LU99A | 0.462
BEN | 0.531
HARA | 1.07
SW 900 | 0.879
NCI-H322M | 0.846
LCLC-97TM1 | 0.563
A-427 | 1.08
NCI-H441 | 0.863
NCI-H1734 | 0.507
NCI-H460 | 0.953
NCI-H2347 | 0.737
NCI-H1395 | 0.501
201T | 0.676
NCI-H1915 | 0.851
HCC-827 | 0.255
LXF-289 | 1.27
NCI-H23 | 0.275
NCI-H647 | 0.537
CAL-12T | 0.704
NCI-H1651 | 0.547
EPLC-272H | 0.284
NCI-H1355 | 1
NCI-H3122 | 1.02
NCI-H1437 | 1
NCI-H1755 | 0.431
HCC-15 | 1.28

compound: C1CSC2=C(C(=O)N1)SC3=C2C=C(C=C3)O [kb NB 142-70] + CCNC(=O)c1noc(-c2cc(C(C)C)c(O)cc2O)c1-c1ccc(CN2CCOCC2)cc1 [Luminespib] (partner 0.01 µM); test: as above; settings: first compound 0.1 µM
In short: as §1

Cell Line | relative viability
ChaGo-K-1 | 0.664
NCI-H2170 | 0.578
NCI-H2405 | 0.733
HOP-62 | 0.971
LU99A | 0.272
BEN | 0.412
HARA | 0.625
SW 900 | 0.187
NCI-H322M | 0.767
LCLC-97TM1 | 0.72
A-427 | 0.845
NCI-H441 | 0.397
NCI-H1734 | 0.185
NCI-H460 | 0.0325
NCI-H2347 | 0.387
NCI-H1395 | 0.79
201T | 1.04
NCI-H1915 | 0.797
HCC-827 | 0.589
LXF-289 | 0.78
NCI-H23 | 0.231
NCI-H647 | 0.177
CAL-12T | 0.56
NCI-H1651 | 0.926
EPLC-272H | 0.361
NCI-H1355 | 0.733
NCI-H3122 | 0.0874
NCI-H1437 | 1.12
NCI-H1755 | 0.49
HCC-15 | 0.195

same assay, conditions: first compound 1 µM

Cell Line | relative viability
ChaGo-K-1 | 0.638
NCI-H2170 | 0.728
NCI-H2405 | 0.728
HOP-62 | 0.884
LU99A | 0.246
BEN | 1.13
HARA | 0.769
SW 900 | 0.181
NCI-H322M | 0.947
LCLC-97TM1 | 0.76
A-427 | 1.12
NCI-H441 | 0.353
NCI-H1734 | 0.205
NCI-H460 | 0.0315
NCI-H2347 | 0.431
NCI-H1395 | 0.69
201T | 1.03
NCI-H1915 | 0.897
HCC-827 | 0.59
LXF-289 | 0.621
NCI-H23 | 0.207
NCI-H647 | 0.184
CAL-12T | 0.611
NCI-H1651 | 0.856
EPLC-272H | 0.216
NCI-H1355 | 0.683
NCI-H3122 | 0.075
NCI-H1437 | 1.1
NCI-H1755 | 0.45
HCC-15 | 0.605

same assay, conditions: first compound 3.162 µM

Cell Line | relative viability
ChaGo-K-1 | 0.448
NCI-H2170 | 0.521
NCI-H2405 | 0.523
HOP-62 | 1.06
LU99A | 0.265
BEN | 0.281
HARA | 0.456
SW 900 | 0.177
NCI-H322M | 0.693
LCLC-97TM1 | 0.692
A-427 | 0.584
NCI-H441 | 0.244
NCI-H1734 | 0.171
NCI-H460 | 0.0216
NCI-H2347 | 0.387
NCI-H1395 | 0.464
201T | 1.08
NCI-H1915 | 0.489
HCC-827 | 0.373
LXF-289 | 0.49
NCI-H23 | 0.201
NCI-H647 | 0.11
CAL-12T | 0.25
NCI-H1651 | 0.354
EPLC-272H | 0.157
NCI-H1355 | 0.553
NCI-H3122 | 0.0881
NCI-H1437 | 0.932
NCI-H1755 | 0.557
HCC-15 | 0.393

compound: C1CSC2=C(C(=O)N1)SC3=C2C=C(C=C3)O [kb NB 142-70] + O=C(CCCCCCC(=O)Nc1ccccc1)NO [Vorinostat] (partner 1 µM); test: as above; settings: first compound 0.1 µM
In short: as §1

Cell Line | relative viability
ChaGo-K-1 | 0.815
NCI-H2170 | 0.823
NCI-H2405 | 1.04
HOP-62 | 0.69
LU99A | 0.486
BEN | 0.553
HARA | 0.449
SW 900 | 0.597
NCI-H322M | 0.942
LCLC-97TM1 | 0.82
A-427 | 0.864
NCI-H441 | 0.89
NCI-H1734 | 0.829
NCI-H460 | 0.733
NCI-H2347 | 0.629
NCI-H1395 | 0.7
201T | 0.943
NCI-H1915 | 0.559
HCC-827 | 0.763
LXF-289 | 0.713
NCI-H23 | 0.703
NCI-H647 | 0.716
CAL-12T | 0.767
NCI-H1651 | 0.543
EPLC-272H | 0.597
NCI-H1355 | 0.605
NCI-H3122 | 0.908
NCI-H1437 | 0.857
NCI-H1755 | 0.709
